# Tests used:
# [1] = target: T1, human TLR9 (Homo sapiens, UniProt Q9NR96); experiment: HEK293-Blue-hTLR-9 cells assay; format: cell-based; settings: HEK293-Blue-hTLR9 cells, ODN2006 stimulation, 20 hrs, SEAP reporter; read-out: HEK/hTLR9 IC50
# T1 construct: host or cells: HEK293 (HEK-Blue hTLR9)
# T1 sequence (Q9NR96 26-1032): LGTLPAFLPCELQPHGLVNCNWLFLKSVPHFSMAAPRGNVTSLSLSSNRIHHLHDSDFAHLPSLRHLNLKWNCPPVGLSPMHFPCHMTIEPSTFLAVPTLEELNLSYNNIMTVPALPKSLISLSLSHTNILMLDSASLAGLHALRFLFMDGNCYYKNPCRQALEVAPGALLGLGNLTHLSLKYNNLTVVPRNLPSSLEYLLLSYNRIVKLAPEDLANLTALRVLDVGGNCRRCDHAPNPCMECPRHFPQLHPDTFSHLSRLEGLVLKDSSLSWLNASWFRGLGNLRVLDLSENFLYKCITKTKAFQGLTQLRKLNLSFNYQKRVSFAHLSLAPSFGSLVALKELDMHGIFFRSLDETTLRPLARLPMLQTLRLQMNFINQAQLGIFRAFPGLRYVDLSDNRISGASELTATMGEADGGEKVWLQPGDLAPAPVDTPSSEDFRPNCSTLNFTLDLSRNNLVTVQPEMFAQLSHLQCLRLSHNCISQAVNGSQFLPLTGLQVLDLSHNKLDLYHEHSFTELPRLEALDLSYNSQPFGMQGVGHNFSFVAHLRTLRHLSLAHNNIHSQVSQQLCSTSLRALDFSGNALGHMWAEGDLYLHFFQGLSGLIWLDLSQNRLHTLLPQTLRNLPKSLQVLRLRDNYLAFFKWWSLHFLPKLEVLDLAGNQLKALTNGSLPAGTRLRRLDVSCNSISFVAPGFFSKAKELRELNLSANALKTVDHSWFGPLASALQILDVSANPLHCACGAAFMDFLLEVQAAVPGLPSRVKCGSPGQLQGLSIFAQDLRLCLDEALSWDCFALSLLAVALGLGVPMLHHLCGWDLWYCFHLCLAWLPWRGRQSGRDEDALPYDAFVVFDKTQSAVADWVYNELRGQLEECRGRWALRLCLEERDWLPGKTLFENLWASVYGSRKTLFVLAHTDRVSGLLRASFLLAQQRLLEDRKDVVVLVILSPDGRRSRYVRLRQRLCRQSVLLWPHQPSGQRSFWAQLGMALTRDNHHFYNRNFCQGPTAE
# [2] = target: T2, human TLR8 (Homo sapiens, UniProt Q9NR97); experiment: HEK293-Blue-hTLR-8 cells assay
# T2 sequence (Q9NR97 27-1041): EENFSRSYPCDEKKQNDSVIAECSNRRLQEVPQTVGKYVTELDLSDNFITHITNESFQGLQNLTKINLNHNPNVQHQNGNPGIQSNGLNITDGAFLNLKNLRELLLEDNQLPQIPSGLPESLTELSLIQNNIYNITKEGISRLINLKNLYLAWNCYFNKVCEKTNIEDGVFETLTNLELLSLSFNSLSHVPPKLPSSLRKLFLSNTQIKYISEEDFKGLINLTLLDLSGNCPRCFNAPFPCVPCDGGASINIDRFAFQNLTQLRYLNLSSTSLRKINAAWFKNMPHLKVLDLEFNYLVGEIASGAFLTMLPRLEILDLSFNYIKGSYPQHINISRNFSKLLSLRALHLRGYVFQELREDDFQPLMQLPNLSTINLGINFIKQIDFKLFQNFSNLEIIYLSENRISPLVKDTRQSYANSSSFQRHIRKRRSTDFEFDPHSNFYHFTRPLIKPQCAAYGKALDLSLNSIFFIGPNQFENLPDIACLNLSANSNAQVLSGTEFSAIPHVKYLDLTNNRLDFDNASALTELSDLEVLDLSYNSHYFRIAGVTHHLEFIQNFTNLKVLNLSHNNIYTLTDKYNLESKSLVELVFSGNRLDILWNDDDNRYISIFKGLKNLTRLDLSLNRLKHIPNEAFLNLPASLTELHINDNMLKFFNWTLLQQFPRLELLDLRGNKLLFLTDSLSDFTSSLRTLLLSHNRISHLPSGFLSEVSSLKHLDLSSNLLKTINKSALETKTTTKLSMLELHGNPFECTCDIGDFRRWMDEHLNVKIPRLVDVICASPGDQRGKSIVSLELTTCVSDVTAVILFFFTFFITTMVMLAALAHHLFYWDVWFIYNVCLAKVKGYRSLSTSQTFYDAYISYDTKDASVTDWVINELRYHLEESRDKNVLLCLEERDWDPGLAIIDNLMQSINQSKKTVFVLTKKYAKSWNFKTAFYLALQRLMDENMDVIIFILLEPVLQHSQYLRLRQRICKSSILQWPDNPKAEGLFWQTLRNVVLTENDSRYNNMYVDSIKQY
# Method: The following tests were carried out in order to determine the activity of the compounds of formula (I) and (Ia) in HEK293-Blue-hTLR-7/8/9 cells assay.
# HEK293-Blue-hTLR-8 Cells Assay:
# A stable HEK293-Blue-hTLR-8 cell line was purchased from InvivoGen (Cat. #: hkb-htlr8, San Diego, Calif., USA). These cells were originally designed for studying the stimulation of human TLR8 by monitoring the activation of NF-κB. A SEAP (secreted embryonic alkaline phosphatase) reporter gene was placed under the control of the IFN-β minimal promoter fused to five NF-κB and AP-1-binding sites. The SEAP was induced by activating NF-κB and AP-1 via stimulating HEK-Blue hTLR8 cells with TLR8 ligands. Therefore, the reporter expression was declined by TLR8 antagonist under the stimulation of a ligand, such as R848, for incubation of 20 hrs. The cell culture supernatant SEAP reporter activity was determined using QUANTI-Blue™ kit (Cat. #: rep-qb1, Invivogen, San Diego, Calif., USA) at a wavelength of 640 nm, a detection medium that turns purple or blue in the presence of alkaline phosphatase.
Structure (SMILES),IC50 [1] [nM],IC50 [2] [nM]
"CO[C@H]1CN(c2ccc(CCN3CCN4[C@@H](C3)CN(c3ccc(C#N)c5ncccc35)C[C@H]4C)cn2)C[C@H]1N [Example 24, 5-[(4R,9aS)-8-[2-[6-[(3R,4S)-3-amino-4-methoxy-pyrrolidin-1-yl]-3-pyridyl]ethyl]-4-methyl-3,4,6,7,9,9a-hexahydro-1H-pyrazino[1,2-a]pyrazin-2-yl]quinoline-8-carbonitrile]",45,15
"CO[C@@H]1CN(c2ccc(CCN3CCN4[C@@H](C3)CN(c3ccc(C#N)n5nccc35)C[C@H]4C)cc2)C[C@H]1N [Example 68, 4-[(4R,9aS)-8-[2-[4-[(3R,4R)-3-amino-4-methoxy-pyrrolidin-1-yl]phenyl]ethyl]-4-methyl-3,4,6,7,9,9a-hexahydro-1H-pyrazino[1,2-a]pyrazin-2-yl]pyrazolo[1,5-a]pyridine-7-carbonitrile]",41,77
"Cc1cnc(N2CCN3[C@@H](C2)CN(c2ccc(C#N)c4ncccc24)C[C@H]3C)nc1N1CCNCC1 [Example 43, 5-[(4R,9aR)-4-methyl-8-(5-methyl-4-piperazin-1-yl-pyrimidin-2-yl)-3,4,6,7,9,9a-hexahydro-1H-pyrazino[1,2-a]pyrazin-2-yl]quinoline-8-carbonitrile]",78,13
"C[C@H]1CN(c2ccc(C#N)c3ncccc23)C[C@@H]2CN(c3ccc([C@@H]4CNCCO4)cc3)CCN21 [Example 125, 5-[(4S,9aS)-4-methyl-8-[4-[(2R)-morpholin-2-yl]phenyl]-3,4,6,7,9,9a-hexahydro-1H-pyrazino[1,2-a]pyrazin-2-yl]quinoline-8-carbonitrile]",120,7
"[2H]c1ccc2c(N3C[C@@H]4CN(c5ncc(C(=O)N6CC7(CN(C)C7)C6)cc5C)CCN4[C@H](C)C3)ccc(C#N)c2n1 [Example 102, 5-[(4R,9aR)-4-methyl-8-[3-methyl-5-(6-methyl-2,6-diazaspiro[3.3]heptane-2-carbonyl)-2-pyridyl]-3,4,6,7,9,9a-hexahydro-1H-pyrazino[1,2-a]pyrazin-2-yl]-2-deuterio-quinoline-8-carbonitrile]",154,2
"C[C@@H]1CN(c2ccc(C#N)n3ncc(F)c23)C[C@@H]2CN(Cc3ccc4c(c3)CNCC4)CCN21 [Example 69, 4-[(4R,9aS)-4-methyl-8-(1,2,3,4-tetrahydroisoquinolin-7-ylmethyl)-3,4,6,7,9,9a-hexahydro-1H-pyrazino[1,2-a]pyrazin-2-yl]-3-fluoro-pyrazolo[1,5-a]pyridine-7-carbonitrile]",142,52
"C[C@@H]1CN(c2ccc(C#N)c3ncccc23)C[C@@H]2CN(Cc3ccc4c(c3)CNCC4)CCN21 [Example 5, 5-[(4R,9aS)-4-methyl-8-(1,2,3,4-tetrahydroisoquinolin-7-ylmethyl)-3,4,6,7,9,9a-hexahydro-1H-pyrazino[1,2-a]pyrazin-2-yl]quinoline-8-carbonitrile]",< 32,12
"C[C@@H]1CN(c2ccc(C#N)n3ncc(F)c23)C[C@@H]2CN(CCc3ccc(N4CC(C)(N)C4)nc3)CCN21 [Example 74, 4-[(4R,9aS)-8-[2-[6-(3-amino-3-methyl-azetidin-1-yl)-3-pyridyl]ethyl]-4-methyl-3,4,6,7,9,9a-hexahydro-1H-pyrazino[1,2-a]pyrazin-2-yl]-3-fluoro-pyrazolo[1,5-a]pyridine-7-carbonitrile]",48,62
"C[C@@H]1CN(c2ccc(C#N)c3ncccc23)C[C@@H]2CN(c3cc(N4CCNCC4)ccn3)CCN21 [Example 34, 5-[(4R,9aR)-4-methyl-8-(4-piperazin-1-yl-2-pyridyl)-3,4,6,7,9,9a-hexahydro-1H-pyrazino[1,2-a]pyrazin-2-yl]quinoline-8-carbonitrile]",42,14
"CO[C@@H]1CN(c2nc(C)cc(N3CCN4[C@@H](C3)CN(c3ccc(C#N)c5ncccc35)C[C@H]4C)n2)C[C@H]1N [Example 45, 5-[(4R,9aR)-8-[2-[(3R,4R)-3-amino-4-methoxy-pyrrolidin-1-yl]-6-methyl-pyrimidin-4-yl]-4-methyl-3,4,6,7,9,9a-hexahydro-1H-pyrazino[1,2-a]pyrazin-2-yl]quinoline-8-carbonitrile]",81,28
"C[C@@H]1CN(c2ccc(C#N)c3ncccc23)C[C@@H]2CN(c3ccnc(N4C[C@@H](F)[C@@H](N)C4)c3)CCN21 [Example 40, 5-[(4R,9aS)-8-[2-[(3S,4R)-3-amino-4-fluoro-pyrrolidin-1-yl]-4-pyridyl]-4-methyl-3,4,6,7,9,9a-hexahydro-1H-pyrazino[1,2-a]pyrazin-2-yl]quinoline-8-carbonitrile]",< 32,7
"CO[C@@H]1CN(c2ccnc(N3CCN4[C@@H](C3)CN(c3ccc(C#N)c5ncccc35)C[C@H]4C)n2)C[C@H]1N [Example 37, 5-[(4R,9aR)-8-[4-[(3R,4R)-3-amino-4-methoxy-pyrrolidin-1-yl]pyrimidin-2-yl]-4-methyl-3,4,6,7,9,9a-hexahydro-1H-pyrazino[1,2-a]pyrazin-2-yl]quinoline-8-carbonitrile]",62,26
"C[C@@H]1CN(c2ccc(C#N)c3ncccc23)C[C@@H]2CN(Cc3cnc4c(c3)CNCC4)CCN21 [Example 6, 5-[(4R,9aS)-4-methyl-8-(5,6,7,8-tetrahydro-1,6-naphthyridin-3-ylmethyl)-3,4,6,7,9,9a-hexahydro-1H-pyrazino[1,2-a]pyrazin-2-yl]quinoline-8-carbonitrile]",69,14
"Cc1cc(N2CCN3[C@@H](C2)CN(c2ccc(C#N)c4ncccc24)C[C@H]3C)cc(N2CC(C)(N)C2)n1 [Example 73, 5-[(4R,9aS)-8-[2-(3-amino-3-methyl-azetidin-1-yl)-6-methyl-4-pyridyl]-4-methyl-3,4,6,7,9,9a-hexahydro-1H-pyrazino[1,2-a]pyrazin-2-yl]quinoline-8-carbonitrile]",< 32,18
"C[C@@H]1CN(c2ccc(C#N)c3ncccc23)C[C@@H]2CN(Cc3cccc4c3CCNC4)CCN21 [Example 70, 5-[(4R,9aS)-4-methyl-8-(1,2,3,4-tetrahydroisoquinolin-5-ylmethyl)-3,4,6,7,9,9a-hexahydro-1H-pyrazino[1,2-a]pyrazin-2-yl]quinoline-8-carbonitrile]",97,12
"C[C@@H]1CN(c2ccc(C#N)c3ncccc23)C[C@@H]2CN(CCc3ccc(N4CC5(CNCCO5)C4)nc3)CCN21 [Example 59, 5-[(4R,9aS)-4-methyl-8-[2-[6-(5-oxa-2,8-diazaspiro[3.5]nonan-2-yl)-3-pyridyl]ethyl]-3,4,6,7,9,9a-hexahydro-1H-pyrazino[1,2-a]pyrazin-2-yl]quinoline-8-carbonitrile]",48,28

# Reference: patent US20220340597A1, “HEXAHYDRO-1H-PYRAZINO[1,2-A]PYRAZINE COMPOUNDS FOR THE TREATMENT OF AUTOIMMUNE DISEASE” (Hoffmann-La Roche Inc., priority 2019, published 2022)
